Experimental data from US20240110004A1 (Northwestern University, priority 2022, published 2024).
Where no end group is shown, it is not given here.

Legend:
[1] = test system: HdhQ111 cells; experiment: Mitochondrial fragmentation assay; format: cell-based, mouse; settings: compared to vehicle treatment group, at least 100 cells per group
Method: FIG. 8: Mitochondrial fragmentation assay. The percentage of HdhQ111 cells with fragmented mitochondria relative to the total number of cells was quantitated. At least 100 cells per group were counted.
FIG. 9: Mitochondrial fragmentation assay. Mitochondrial morphology was determined by staining cells with anti-Tom20 antibody. Nuclei: Hoechst 33342 stain. […] Scale Bars: 60 μm; 12 μm for inset.
Mitochondrial Fragmentation Methods: As preventing the fragmentation of the mitochondria is important for maintaining the health of striatal cells in the HD in vitro model, the PLP's abilities were tested in this regard.

[2] = biological target: T1, VCP (Homo sapiens, UniProt P55072); experiment: Bio-layer interferometry (BLItz) binding to VCP
T1 construct: purchased Antibodies-online
T1 sequence (P55072 whole entry, species assumed): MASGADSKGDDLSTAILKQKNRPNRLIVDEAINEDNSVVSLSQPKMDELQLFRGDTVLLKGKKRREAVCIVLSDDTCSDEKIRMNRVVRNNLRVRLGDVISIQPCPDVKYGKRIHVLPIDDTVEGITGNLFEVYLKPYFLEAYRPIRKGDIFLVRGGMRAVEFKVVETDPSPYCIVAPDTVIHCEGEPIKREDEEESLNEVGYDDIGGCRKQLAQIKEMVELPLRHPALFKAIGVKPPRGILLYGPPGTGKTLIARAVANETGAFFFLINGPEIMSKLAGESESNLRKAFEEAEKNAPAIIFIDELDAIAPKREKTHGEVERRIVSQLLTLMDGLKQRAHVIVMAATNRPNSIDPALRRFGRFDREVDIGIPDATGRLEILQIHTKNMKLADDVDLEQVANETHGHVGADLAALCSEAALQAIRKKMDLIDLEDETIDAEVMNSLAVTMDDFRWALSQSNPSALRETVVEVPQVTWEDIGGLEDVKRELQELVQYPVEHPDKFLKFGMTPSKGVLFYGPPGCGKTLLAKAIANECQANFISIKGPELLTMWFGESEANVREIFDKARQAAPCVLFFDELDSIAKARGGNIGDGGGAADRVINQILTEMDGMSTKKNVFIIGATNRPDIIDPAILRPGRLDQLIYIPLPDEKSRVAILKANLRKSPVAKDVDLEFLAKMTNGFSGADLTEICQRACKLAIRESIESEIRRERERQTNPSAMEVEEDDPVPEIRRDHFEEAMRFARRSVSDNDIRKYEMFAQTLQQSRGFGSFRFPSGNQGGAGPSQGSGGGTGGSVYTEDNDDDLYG
Method: FIG. 14A-14B: Biolayer Interferometry (BLItz) measurements from in vitro assay evaluating binding between P1 and VCP (FIG. 14A) and between HV3-TAT peptide and VCP (FIG. 14B). FIG. 14A: lines from top to bottom: 100 μM, 10 μM, and 750 nM. FIG. 14B: lines from top to bottom: 10 μM, 7.5 μM, 5 μM, and 1.25 μM.
BLI Methods: With cellular VCP engagement verified as discussed in Example 2 (and shown in FIG. 3B), P1 was further assessed for VCP binding via Bio-layer Interferometry (BLI) to further study the interaction compared to HV3-TAT peptide. Binding affinity was measured by using BLItz instrument. The anti-HIS sensor (HIS2) was hydrated before the installation. After the sensor installation to the BLItz instrument, histidine tagged VCP proteins (50 μg/ml in sodium acetate buffer at pH 6.5) were immobilized on the sensor. HV3-TAT and P1 were dissolved in Tris buffer (pH 8.4) with a range of concentrations. Using BLItz instrument, the dissociation constant (KD), on-rate (ka) and off-rate (kd) of each analyte were measured.

[3] = test system: R6/2 mice; experiment: In vivo efficacy in R6/2 Huntington's disease mice, behavioral analysis, body weight, survival; design: species or system mouse; settings: for open field horizontal activity / open field total distance / open field vertical activity: 13 weeks; for survival: over the saline control; for average percent of body weight gain: week 13
Description: FIG. 31A-31F: For each of FIG. 31A-31F, data is shown reflecting the results of 3 separate studies (i.e., “Batch 1+2+3”) conducted under identical conditions; “veh” refers to the vehicle saline control. For each of FIG. 31A-31C at week 6, WT: n=15; WT+P1: n=15; R62 veh: n=22; R62+HV3-TAT: n=32; and R62+P1: n=16. For each of FIG. 31D-31F at week 6, WT: n=15; WT+P1: n=15; R62 veh: n=17; R62+HV3-TAT: n=30; and R62+P1: n=13. FIG. 31A depicts the average percent of body weight gain for mice subjected to each treatment. From top to bottom, the week 13 data points correspond to: WT+P1 (˜43%); WT (˜39%); R62+P1 (˜1%); R62+HV3-TAT (˜ […]); and R62 (˜-9%). FIG. 31B depicts the survival rate for each treatment group over time. 100% survival rate for WT veh and WT+P1. R62+P1 as compared to R62 veh: p-value=0.0454; R62+HV3-TAT as compared to R62 veh: p-value=0.0201. FIG. 31C depicts the average hindlimb clasping score for each treatment group at weeks 11, 12, and 13. For each week: R62 mice treated with vehicle (left), R62 treated with HV3-TAT (middle), and R62 treated with P1 (right). p-values in week 11: 0.0145 (top—R62 veh as compared to R62+P1), 0.0432 (middle—R62 veh as compared to R62+HV3-TAT), and 0.6051 (bottom—R62+HV3-TAT as compared to R62+P1); week 12: 0.0037 (top—R62 veh as compared to R62+P1), 0.0263 (middle—R62 veh as compared to R62+HV3-TAT), and 0.3957 (bottom—R62+HV3-TAT as compared to R62+P1); week 13: 0.0031 (top—R62 veh as compared to R62+P1), 0.0177 (middle—R62 veh as compared to R62+HV3-TAT), and 0.4938 (bottom—R62+HV3-TAT as compared to R62+P1). FIG. 31D depicts results from the open field tests representing the total distance traveled at final data collection. p-value for: WT veh as compared to R62 veh: <0.0001; WT+P1 as compared to R62 veh: <0.0001; R62 veh as compared to R62+HV3-TAT: 0.0021; R62 veh as compared to R62+P1: <0.0001; R62+HV3-TAT as compared to R62+P1: 0.1486. FIG. 31E depicts results from the horizontal activity tests. p-value for: WT veh as compared to R62 veh: <0.0001; WT+P1 as compared to R62 veh: <0.0001; R62 veh as compared to R62+HV3-TAT: 0.0262; R62 veh as compared to R62+P1: <0.0001; R62+HV3-TAT as compared to R62+P1: 0.0083. FIG. 31F depicts results from the vertical activity tests. P-value for: WT veh as compared to R62 veh: 0.0004; WT+P1 as compared to R62 veh: <0.0001; R62 veh as compared to R62+HV3-TAT: 0.2879; R62 veh as compared to R62+P1: 0.0375; R62+HV3-TAT as compared to R62+P1: 0.6222.
In vivo Efficacy Methods—Behavioral Analysis: All experiments in animals were conducted in accordance with protocols approved by the Institutional Animal Care and Use Committee of Northwestern University and were performed based on the National Institutes of Health Guide for the Care and Use of Laboratory Animals. HV3-TAT at its operating dose, saline (negative control), and P1 at a dose of […] (3 mg/kg/day with respect to peptide) were administered to Huntington's phenotype R6/2 (sometimes referred to herein as R62) mice and WT mice via Alzet osmotic pump from 6 to 13 weeks of age. The accepted HD phenotype is a decrease in motor coordination, general motility and body weight in male mice as they age from 5 to 13 weeks. A key phenotype of R6/2 mice is hindlimb clasping. Accordingly, hindlimb clasping was assessed with the tail suspension test weekly from the ages 7 to 13 weeks in R6/2 mice and WT littermates. Mice were suspended by the tail for 60 sec and the latency for the hindlimbs or all four paws to clasp was recorded using the following score system: clasping over 10 sec, score 3; 5-10 sec, score 2; 0-5 sec, score 1; 0 sec, score 0. The body weight and survival rate of HD mice and WT littermates were also recorded throughout the study period. For open field motor activity, gross locomotor activity was assessed in R6/2 mice and age-matched WT littermates at the ages of 13 weeks. […]

[4] = bio-layer interferometry, VCP protein

Substance: P1: PLP homopolymer having peptide side chains of SEQ ID: 1 (HVLVMSATRR), made by ROMP of norbornene peptide monomer M1 (also: side chains of polynorbornene homopolymer (PLP, ROMP of norbornene peptide monomer))
- fragmented mitochondria [1]: significantly fewer fragmented mitochondria
- decrease in dissociation constant compared to the HV3-TAT peptide ([2]; BLI, VCP): more than 150 fold
- open field horizontal activity [3]: improved
- open field total distance [3]: improved
- open field vertical activity [3]: improved
- survival [3]: significantly extending survival
- average percent of body weight gain [3]: ~1%

Substance: peptide sequence HVLVMCAT (HV3) coupled to the cell penetrating, HIV-derived TAT peptide [HV3-TAT, reference compound]
- fragmented mitochondria [1]: significantly fewer fragmented mitochondria
- Kd ([2]; BLI, VCP): 14 µM
- koff [2, 4]: 0.023 s⁻¹
- kon [2, 4]: 1600 M⁻¹ s⁻¹
- open field horizontal activity [3]: improved
- open field total distance [3]: improved
- open field vertical activity [3]: improved
- survival [3]: significantly extending survival
- hindlimb clasping ([3]; tail suspension test, weekly): longer clasping time than P1 treated mice
- average percent of body weight gain [3]: ~4%
